Source: US6638938B1, “Method for preventing tissue injury from hypoxia” (Cell Therapeutics, Inc., priority 1993, dated 2003)

Legend:
[1] = system: mRNA for IL-1β, IL-6, TNFα and IFN-γ; assay: cytokine mRNA by PCR in murine hemorrhage and resuscitation model; assay type: in vivo, Balb/C mice
Method: This example illustrates a study of Lisofylline in a murine hemorrhage and resuscitation model. Male Balb/C mice, 8-12 weeks of age, were obtained from Harlan-Sprague Dawley (Indianapolis, Ind.). The animals were kept on a 12 hour light/dark cycle with free access to food and water. With this model, 30% of the calculated blood volume (approximately 0.55 ml for a 20 gram mouse) was withdrawn from a methoxyflurane anesthetized mouse by cardiac puncture over a 60-second period. The blood was collected into a heparinized syringe (5 units heparin), kept at 37° C. for one hour, then reinfused into the mouse through a retroorbital plexus injection. Using this method, one is able to resuscitate all hemorrhaged mice without complication. The total period of methoxyflurane anesthesia is less than 2 minutes in all cases. The mortality rate with this hemorrhage protocol is approximately 12%, with all deaths occurring over the 24 hours post hemorrhage, and most deaths occurring within the one hour post hemorrhage.
Mice were treated with 100 mg/kg Lisofylline in 0.2 ml PBS and given initially i.v., by retroorbital injection, then i.p. every 8 hours for a total of 9 doses. In hemorrhaged mice, the Lisofylline in PBS was added to the shed blood, and then given retroorbitally with the blood during the resuscitation phase. In hemorrhaged Balb/C mice (n=3), sacrificed by exsanguination 5 minutes after receiving Lisofylline with the blood used for resuscitation, serum levels of Lisofylline were 44±6 μg/ml.
Intraparenchymal pulmonary mononuclear cells were isolated by collagenase digestion and Percoll® gradient purification using techniques previously described. Briefly, after the mouse was killed by cervical dislocation or exsanguination, the chest was opened and the lung vascular bed was flushed by injecting 3-5 ml of chilled (4° C.) PBS into the right ventricle. The lungs were then excised, avoiding the paratracheal lymph nodes, and washed twice in RPMI 1640. The lungs were minced finely, and the tissue pieces placed in RPMI 1640 with 5% FCS, penicillin/streptomycin, 10 mM HEPES, 50 μM 2-ME, 20 mM L-glutamine, containing 20 U/ml collagenase and 1 μg/ml DNase. Following incubation for 60 minutes at 37° C., any remaining intact tissue was disrupted by passage through a 21 gauge needle. Tissue fragments and the majority of dead cells were removed by rapid filtration through a glass wool column, and cells collected by centrifugation. The cell pellet was suspended in 4 ml of 80% Percoll® (Pharmacia, Uppsala, Sweden) and 4 ml of 40% Percoll® was then layered on. After centrifugation at 600 g for 20 minutes at 15° C., the cells at the interface were collected, washed in RPMI 1640, and counted. Viability, as determined by trypan blue exclusion, was consistently greater than 98%.
Peripheral blood mononuclear cells were isolated from heparinized blood which had been diluted 2:1 with PBS, pH 7.3, and layered onto a gradient containing 4 ml Lympholyte M (Accurate Chemicals, San Diego, Calif.). After centrifugation at 600 g for 20 minutes at 15° C., the cells at the interface were collected, washed in RPMI 1640, and counted. Viability, as determined by trypan blue exclusion, was consistently greater than 98%. Plasma was collected following centrifugation of bloodto whichhad beenadded 10^−3 M EDTA.
mRNA was isolated using oligo dT cellulose minicolumns (Invitrogen San Diego, Calif.). cDNA was synthesized from the mRNA of 100,000 cells for all cell populations except alveolar macrophages (where 20,000 cells were used) using Moloney murine leukemia virus reverse transcriptase and random hexamer oligonucleotides according to the procedure of Kawasaki (PCR Protocols: A Guide to Methods and Applications, Innis et al., eds, pp. 21-27, Academic Press, New York, 1991). […]

[2] = system: PA and DAG generation; conditions: cited from earlier work

Structure (SMILES): C[C@@H](O)CCCCn1c(=O)c2c(ncn2C)n(C)c1=O [Lisofylline, 1-R-(5-hydroxyhexyl)-3,7-dimethylxanthine]
- murine lung cytokine levels (FIG. 5) ([1]; determined by PCR, following hemorrhage and resuscitation): significantly decreased
- lung cytokine concentrations (FIG. 7) ([1]; following hemorrhage shock in mice, model of ARDS): significantly decreased
- TNFα mRNA levels in PBMC ([1]; hemorrhage/resuscitated mice treated, versus untreated, 3 days): significantly decreased
- amounts of mRNA for IL-1β and TNF among cells isolated from BAL samples ([1]; hemorrhaged/resuscitated mice treated, versus normal untreated or normal treated mice): not different
- levels of mRNA for IL-1β, IL-6, TNFα and IFN-γ among intraparenchymal pulmonary mononuclear cells ([1]; hemorrhaged/resuscitated mice treated, versus untreated, 3 days): significantly decreased
- mRNA levels in PBMC for IL-1β, IL-6, TNFα and IFN-γ ([1]; treatment after hemorrhage): did not affect
- concentrations at which Lisofylline effectively inhibits PA synthesis [2]: 10 to 30 µM
